Like-named read-outs stand apart in the source and are kept apart here.
Target: T1, recombinant human 15-PGDH (Homo sapiens, UniProt P15428)
T1 construct: purchased R&D Systems
T1 sequence (P15428 1-266): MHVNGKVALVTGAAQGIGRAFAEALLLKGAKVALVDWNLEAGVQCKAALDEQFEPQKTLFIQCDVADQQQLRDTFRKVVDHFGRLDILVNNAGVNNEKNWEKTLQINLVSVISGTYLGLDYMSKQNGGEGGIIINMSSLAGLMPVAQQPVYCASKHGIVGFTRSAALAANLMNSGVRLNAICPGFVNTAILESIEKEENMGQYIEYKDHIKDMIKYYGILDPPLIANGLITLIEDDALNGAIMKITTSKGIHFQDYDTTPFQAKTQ
Test: 15-PGDH enzyme inhibition test
Format: biochemical
Details: 4 nM recombinant human 15-PGDH, 30 μM PGE2, 1 mM NAD+, 60 minutes after starting the reaction
Procedure, shortened: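 Fluorescence (excitation 340 nm, emission 440 nm) measured 60 min after adding 1 mM NAD+ and 30 μM PGE2 to 4 nM recombinant human 15-PGDH, which had stood 12 min at room temperature with compound in pH 8.0 Tris-HCl buffer. Concentration-response curves yield IC50, binned into potency categories.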

Row | SMILES | IC50 (read-out: IC50 Value) | IC50 (IC50 Value)
1 | CN(C)C1CCCN(C(=O)c2cnc3c(c2)OCCN3c2ccn3c(=O)n(C)nc3c2)C1 (centres unmarked) [Example 33-1, 7-(7-(3-(Dimethylamino)piperidine-1-carbonyl)-2,3-dihydro-4H-pyrido[3,2-b] [1,4]oxazin-4-yl)-2-methyl-[1,2,4]triazolo[4,3-a]pyridin-3(2H)-one] | > 0.1 µM | –
2 | O=C(c1cnc2c(c1)OCCN2c1ccc2cnccc2c1)N1CCCCC1 [Example 1-259] | < 0.01 µM | –
3 | CCn1nc2cc(N3CCOc4cc(C(=O)N5CCCCC56COC6)cnc43)ccn2c1=O [Example 8-218] | > 0.1 µM | –
4 | CCN1Cc2cc(N3CCCc4cc(C(=O)N5CCCCCCC5)cnc43)ccc2C1=O [Example 8-71] | < 0.01 µM | –
5 | O=C(c1cnc2c(c1)OCCN2c1ccc(C(F)(F)F)cc1)N1CCCCC1 [Example 1-242] | 0.01 to 0.1 µM | –
6 | Cc1cn2ccc(N3CCOc4cc(C(=O)N5CCCCC5)cnc43)cc2n1 [Example 1-26] | 0.01 to 0.1 µM | –
7 | C[C@H]1CCCN(C(=O)c2cnc3c(c2)CCCN3c2ccn3c(=O)n(C)nc3c2)C1 [Example 8-135] | < 0.01 µM | –
8 | CS(=O)(=O)CCc1ccc(N2CCOc3cc(C(=O)N4CCCCC4)ccc32)cc1 [Example 1-161] | < 0.01 µM | –
9 | O=C(c1cnc2c(c1)CCCN2c1ccn2c(=O)[nH]nc2c1)N1CCCCC1 [Example 1-171] | < 0.01 µM | –
10 | Cn1ncc2cc(N3CCCc4cc(C(=O)N5CCCCC5)cnc43)ccc2c1=O [Example 1-188] | < 0.01 µM | –
11 | Cn1nc2cc(N3CCCc4cc(C(=O)N5CCC[C@H](C(F)(F)F)C5)cnc43)ccn2c1=O [Example 8-146] | < 0.01 µM | –
12 | CCN(C)C(=O)c1cnc2c(c1)OCCN2c1ccn2c(=O)n(C)nc2c1 [Example 8-55] | < 0.01 µM | –
13 | CN1Cc2cc(N3CCOc4cc(C(=O)N5CCCCCCC5)cnc43)ccc2C1=O [Example 8-187] | < 0.01 µM | –
14 | COCn1nc2cc(N3CCCc4cc(C(=O)N5CCC[C@H](CF)C5)cnc43)ccn2c1=O [Example 1-114] | < 0.01 µM | –
15 | CN1CCN(c2ccn3c(=O)n(C)nc3c2)c2ncc(C(=O)N3CCCCC3)cc21 [Example 29-1, 2-Methyl-7-(l-methyl-7-(piperidine-1-carbonyl)-2,3-dihydropyrido[2,3-b]pyrazin-4(1H)-yl)-[1,2,4]triazolo[4,3-a]pyridin-3(2H)-one] | < 0.01 µM | –
16 | CN1Cc2cc(N3CCOc4cc(C(=O)N5CCCC(F)(F)C5)cnc43)ccc2C1=O [Example 8-201] | < 0.01 µM | –
17 | Cn1nc2cc(N3CCOc4cc(C(=O)N5CCC[C@@H](C(F)(F)F)C5)cnc43)ccn2c1=O [Example 8-115] | < 0.01 µM | –
18 | O=C(c1cnc2c(c1)OCCN2c1ccc2c(c1)CN(C1CC1)C2=O)N1CCC(F)(F)CC1 [Example 1-227] | < 0.01 µM | –
19 | COc1noc2cc(N3CCOc4cc(C(=O)N5CCCCC5)cnc43)ccc12 [Example 1-20] | < 0.01 µM | –

Row | SMILES | IC50 (read-out: IC50 Value) | IC50 (IC50 Value)
20 | Cn1nc2cc(N3CCCOc4cc(C(=O)N5CCC5)cnc43)ccn2c1=O [Example 8-57] | < 0.01 µM | –
21 | O=C(c1cnc2c(c1)CCCN2c1ccn2c(=O)[nH]nc2c1)N1CCC(F)(F)CC1 [Example 1-184] | < 0.01 µM | –
22 | O=C(c1cnc2c(c1)OCCN2c1ccn2c(=O)[nH]nc2c1)N1CCCCC1 [Example 1-30] | < 0.01 µM | –
23 | COCCn1nc2cc(N3CCOc4cc(C(=O)N5CCC(F)(F)CC5)cnc43)ccn2c1=O [Example 1-47] | < 0.01 µM | –
24 | O=C(c1ccc2c(c1)OCCN2C1CCCCC1)N1CCCCC1 [Example 8-14] | 0.01 to 0.1 µM | –
25 | CCOCCn1nc2cc(N3CCCc4cc(C(=O)N5CCCCC5)cnc43)ccn2c1=O [Example 1-70] | < 0.01 µM | –
26 | O=C(c1cnc2c(c1)OCCN2c1ccc2c(=O)[nH]ccc2c1)N1CCC(F)(F)CC1 [Example 1-128] | < 0.01 µM | –
27 | Cn1nc2cc(N3CCOc4cc(C(=O)N5CCCCC5)ccc43)ccn2c1=O [Example 1-25] | < 0.01 µM | –
28 | CCN1CCN(c2ccn3c(=O)n(C)nc3c2)c2ncc(C(=O)N3CCC(F)(F)CC3)cc21 [Example 29-5] | < 0.01 µM | –
29 | Cn1nc2cc(N3CCCc4cc(SC5CCCCC5)cnc43)ccn2c1=O [Example 1-135] | 0.01 to 0.1 µM | –
30 | Cc1nccc(N2CCOc3cc(C(=O)N4CCC(F)(F)CC4)ccc32)n1 [Example 24-3] | 0.01 to 0.1 µM | –
31 | CC(=O)N1CCN(c2ccn3c(=O)n(C)nc3c2)c2ncc(C(=O)N3CCCCC3)cc21 [Example 29-3] | < 0.01 µM | –
32 | Cn1nc2cc(N3CCOc4cc(C(=O)N5CCC(=O)CC5)cnc43)ccn2c1=O [Example 8-112] | – | 0.01 to 0.1 µM
33 | CCn1nc2cc(N3CCCc4cc(C(=O)N5CCC[C@@H](F)C5)cnc43)ccn2c1=O [Example 8-162] | < 0.01 µM | –
34 | CN1Cc2cc(N3CCOc4cc(C(=O)N5CCC(F)(F)CC5)cnc43)ccc2C1=O [Example 1-127] | < 0.01 µM | –
35 | C[C@H]1COc2cc(C(=O)N3CCCCC3)ccc2N(c2ccn3c(=O)n(C)nc3c2)C1 [Example 1-95] | < 0.01 µM | –
36 | O=C(O)c1ccc(N2CCOc3cc(C(=O)N4CC=CCC4)cnc32)cc1 [Example 4-9] | < 0.01 µM | –
37 | O=C1NCc2cc(N3CCOc4cc(C(=O)N5CCC(F)(F)CC5)ccc43)ccc21 [Example 14-3] | < 0.01 µM | –
38 | O=C(O)CCc1ccc(N2CCOc3cc(C(=O)N4CCCCC4)ccc32)cc1 [Example 2-33] | < 0.01 µM | –

Row | SMILES | IC50 (read-out: IC50 Value) | IC50 (IC50 Value)
39 | Cn1nc2cc(N3CCOc4cc(C(=O)N5CCC6CC6C5)cnc43)ccn2c1=O (centres unmarked) [Example 8-46] | < 0.01 µM | –
40 | CCN1Cc2cc(N3CCCc4cc(C(=O)N5CCCC(C)(F)C5)cnc43)ccc2C1=O (centres unmarked) [Example 8-81] | < 0.01 µM | –
41 | CN1CCN(c2ccccc2)c2ncc(C(=O)N3CCCCC3)cc21 [Example 1-228] | > 0.1 µM | –
42 | O=C(O)c1ccc(N2CCOc3cc(C(=O)N4CCCCC4)c(Cl)cc32)cc1 [Example 2-3] | < 0.01 µM | –
43 | CN(C)C(=O)Cn1nc2cc(N3CCOc4cc(C(=O)N5CCCCC5)cnc43)ccn2c1=O [Example 6-8] | < 0.01 µM | –
44 | COCCN1CCN(c2ccn3c(=O)n(C)nc3c2)c2ncc(C(=O)N3CCCCC3)cc21 [Example 29-2] | < 0.01 µM | –
45 | O=C(c1cnc2c(c1)OCCN2c1ccn2c(=O)n(-c3ccccn3)nc2c1)N1CCCCC1 [Example 1-35] | < 0.01 µM | –
46 | Cn1nc2cc(N3CCCc4cc(C(=O)N5CCC[C@@H](C(F)(F)F)C5)cnc43)ccn2c1=O [Example 8-145] | 0.01 to 0.1 µM | –
47 | CCOC(=O)c1ccc(N2CCOc3cc(C(=O)N4CCCCC4)cnc32)s1 [Example 1-264] | < 0.01 µM | –
48 | Cn1nc2cc(N3CCOc4cc(C(=O)NCCCO)cnc43)ccn2c1=O [Example 8-174] | 0.01 to 0.1 µM | –
49 | CCn1oc2cc(N3CCOc4cc(C(=O)N5CCCCC5)cnc43)ccc2c1=O [Example 8-213] | < 0.01 µM | –
50 | CCOCCn1nc2cc(N3CCOc4cc(C(=O)N5CCC(F)(F)CC5)cnc43)ccn2c1=O [Example 1-48] | < 0.01 µM | –
51 | Cn1nc2cc(N3CCCc4cc([S+]([O-])C5CCCCC5)cnc43)ccn2c1=O (centres unmarked) [Example 7-7] | < 0.01 µM | –
52 | O=C(O)c1ccc(N2CCOc3cc(C(=O)N4CCC[C@@H](F)C4)cnc32)cc1 [Example 4-7] | < 0.01 µM | –
53 | CCn1nc2cc(N3CCCc4cc(C(=O)N5CCC[C@@H](CF)C5)cnc43)ccn2c1=O [Example 1-120] | < 0.01 µM | –
54 | O=C(O)c1ccc(N2CCCOc3cc(C(=O)N4CCCCC4)ccc32)cc1 [Example 2-5] | < 0.01 µM | –
55 | CCN1Cc2cc(N3CCCc4cc(C(=O)N5CCCC5)cnc43)ccc2C1=O [Example 8-69] | < 0.01 µM | –
56 | Cn1nc2cc(N3CCOc4cc(C(=O)N5CCC(F)(F)CC5)cnc43)ccn2c1=O [Example 8-26] | < 0.01 µM | –

Source: patent US12577217B2, “15-PGDH inhibitor” (KYORIN Pharmaceutical Co., Ltd., priority 2019, dated 2026)
